This passage reports IC50 results from BindingDB's records for doi:10.1016/j.bmcl.2013.01.064 (Bristol Myers Squibb, 2013).

As usually defined, the IC50 is the concentration that inhibits the measured activity by half.

In this assay the target is Potassium voltage-gated channel subfamily A member 5 (Homo sapiens, UniProt P22460). The assay can be described thus: Antagonist activity at human Kv1.5 expressed in mouse L929 cells assessed as inhibition of delayed rectifier repolarization current by patch clamp assay. A general note: The patch-clamp technique gives a direct electrical read-out from membranes.
Chain of Potassium voltage-gated channel subfamily A member 5 (P22460 whole entry): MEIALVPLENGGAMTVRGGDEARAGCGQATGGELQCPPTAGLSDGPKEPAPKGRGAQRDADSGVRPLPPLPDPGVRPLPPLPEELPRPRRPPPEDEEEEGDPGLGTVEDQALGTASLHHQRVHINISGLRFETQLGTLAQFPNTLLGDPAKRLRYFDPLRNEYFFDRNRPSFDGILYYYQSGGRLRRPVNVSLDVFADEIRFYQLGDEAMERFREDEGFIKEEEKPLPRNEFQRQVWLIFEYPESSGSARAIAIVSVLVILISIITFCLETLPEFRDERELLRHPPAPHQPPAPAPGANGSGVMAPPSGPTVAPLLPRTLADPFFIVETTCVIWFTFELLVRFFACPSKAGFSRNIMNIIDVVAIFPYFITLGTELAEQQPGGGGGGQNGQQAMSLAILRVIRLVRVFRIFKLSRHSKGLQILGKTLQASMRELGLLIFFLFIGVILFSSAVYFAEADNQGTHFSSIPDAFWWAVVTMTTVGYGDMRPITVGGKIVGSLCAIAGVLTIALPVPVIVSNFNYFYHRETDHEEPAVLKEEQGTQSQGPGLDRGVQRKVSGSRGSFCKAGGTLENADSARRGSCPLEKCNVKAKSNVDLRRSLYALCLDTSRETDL
As for `CC1=Nc2ccnn2[C@H](c2ccc(Cl)c(Cl)c2)C1c1ncnn1C(C)(C)C` (stereo partly drawn), the half-maximal inhibitory concentration (IC50) worked out at 223 nM.

For the compound `CCOc1cccc(-n2ncnc2C2C(C)=Nc3cc(C(F)(F)F)nn3[C@@H]2c2ccc(Cl)c(Cl)c2)n1` (stereo partly drawn), the half-inhibitory concentration (IC50) was 223 nM. In the case of `CC1=Nc2cc(C(F)(F)F)nn2[C@H](c2ccc(Cl)c(Cl)c2)C1c1ncnn1C1CCC(C(F)(F)F)CC1` (stereo partly drawn), the half-maximal inhibitory concentration (IC50) is 607 nM.
